The source of these data is EPA's ToxValDB 9.5 (doi:10.2903/j.efsa.2017.4976).

By NOAEL is commonly meant the highest tested level that showed no adverse finding. Broadly, the LC50 is the concentration lethal to half of the exposed cells or organisms.

The test system of one data set is Apis mellifera. Particulars: acute, mortality.
For the next data set, the system named is Daphnia magna. Conditions: chronic/long-term; duration: 21 days; reproduction.
The subject of the next data set is Oryctolagus sp. Particulars: reproduction developmental.
Another data set deals with Tagia sp. Conditions: chronic/long-term; growth.
The next data set has as its system Colinus virginianus. Particulars: for LD50: acute, oral, mortality.
For the next data set, the system named is Elodea callitrichoides. Conditions: chronic/long-term; duration: 42 days.
For the next data set, the system named is Rattus norvegicus. Particulars: acute; oral; mortality.
Another data set relates to Hypoaspis aculeifer. Conditions: chronic/long-term; mortality.

Values after ≈ are worked out from the molar mass of the structure shown.

For the compound `CNC1=C(c2cccc(C(F)(F)F)c2)C(=O)C(c2ccccc2)O1` (stereo not drawn) [Flurtamone], the LD50 in the data set with Apis mellifera (dermal) is greater than 100 µg/piece; in the data set with Apis mellifera (oral, unspecified), greater than 105 µg/piece; in the data set with Colinus virginianus (diet), greater than 1580 mg/kg-day; with Colinus virginianus, greater than 2530 mg/kg; with Rattus norvegicus, greater than 5000 mg/kg-day. Also, the NOEC in the data set on Daphnia magna was determined as 0.071 mg/L; with Tagia sp. it was 47.5 mg/kg; in the data set on Elodea callitrichoides, 0.001 mg/L; in the data set on Hypoaspis aculeifer, 89 mg/kg; in the data set on Pimephales promelas (chronic/long-term, growth), 0.188 mg/L. The compound further returned an NOAEL in the data set with Oryctolagus sp. of 20 mg/kg-day. Further, the NOEL in the data set on Colinus virginianus (reproduction developmental) amounted to 7.3 mg/kg-day. For the same compound, the LC50 in the data set with Pimephales promelas (acute, duration: 96 hours, oral, feed, mortality) came to 6.64 µg/mL (≈ 19.9 µM).
